Experimental data reported in publication PMC12845422, “Characterization of a Novel Family of Contilisant + Belinostat Multitarget Small Molecules in Glioblastoma” (Pharmaceuticals, 2025).
Where “and” joins values, the source holds several entries; their conditions need not be identical. Identical values can stand only once. Entries after “also recorded” stand apart in the source; their conditions may differ.

What was measured:
GNS166 cells [1] = experiment: Cell cycle analysis by flow cytometry; type: cell-based; settings: 5 μM
Method: Cells were harvested using accutase and washed with PBS. Then, 1·10^6 cells were fixed with 70% cold ethanol at −20 °C for at least 24 h, and incubated with 0.5% Triton X-100 and 25 µg/mL RNase A in PBS for 30 minutes at room temperature. Then, DNA was stained with 25 ng/mL propidium iodide for 15 minutes and samples were analyzed using a CytoFLEX flow cytometer (Beckman Coulter Co., Brea, CA, USA).

H1299 lung cancer cells = experiment: MTT cell viability, H1299; type: cell-based; settings: Homo sapiens, NCI-H1299; MSM 0–10 μM
Method: (§1) Cells were seeded at a density of 1.5 × 10^3 cells/well (conventional cell lines) or 5 × 10^3 cells/well (GNS and NHA) in 96-well plates and incubated overnight. Cells were then treated with increasing concentrations of MSMs. After 72 h, cells were incubated for 3.5 h with MTT, after which absorbance at 570 nm was measured. IC50 values were calculated using GraphPad Prism software.

[2] = system: RWP1 pancreatic cancer cells; experiment: MTT cell viability, RWP1; type: cell-based; settings: MSM 0–10 μM
Method: as §1

[3] = system: Normal Human Astrocytes (NHAs); experiment: MTT cell viability, normal human astrocytes; type: cell-based; settings: Astrocyte, MSM 0–100 μM, 72 h, read-out: IC50 in NHA
Method: as §1

U87-MG cells [4] = experiment: MTT cell viability, U87-MG; type: cell-based; settings: Homo sapiens, U-87 MG, 72 h
Method: as §1

[5] = system: MKN45 gastric cancer cells; experiment: MTT cell viability, MKN45; type: cell-based; settings: Homo sapiens, MKN-45; MSM 0–10 μM
Method: as §1

subcutaneous tumors = experiment: In vivo carcinogenesis assay, combination with TMZ; parameters: species or system mice
Method: (§2) Subcutaneous tumor growth was initiated by injecting 5 × 10^5 cells into both hind flanks of athymic nude-Foxn1^nu mice. Once the tumors reached 25–50 mm^3, mice were allocated to treatment groups by gender and tumor size. For monotherapy, mice were treated intratumorally with vehicle (DMSO dilution) or 200 µM of MTP150 or intraperitoneally with 15 mg/kg, on a 5-days-on, 2-days-off schedule. In combination therapy, 0.5 mg/Kg TMZ or vehicle was administered intraperitoneally during the first 5 days; intratumoral MTP150 or vehicle was delivered with the same schedule. After 4 weeks, mice were sacrificed and tumors were extracted.

[6] = system: U87-MG subcutaneous tumors; experiment: In vivo carcinogenesis assay, monotherapy, subcutaneous U87-MG tumors; parameters: species or system mice
Method: as §2

GNS166 cells [7] = experiment: Western blot of acetylated α-tubulin and acetylated H3, GNS166; type: cell-based; settings: increasing concentrations
Method: (§3) Sodium dodecyl sulfate-polyacrylamide gel electrophoresis was performed. Primary antibodies against HDAC1 (Abcam, Waltham, MA, USA) and HDAC6 (Cell Signaling, Danvers, MA, USA), along with their downstream targets, acetylated H3 (Cell Signaling) and acetylated α-tubulin (Abcam), were used. β-actin (Sigma-Aldrich) served as endogenous control. Secondary antibodies conjugated to horseradish peroxidase (anti-rabbit or anti-mouse; Cell Signaling) were applied. Proteins were detected using the iBright imaging system and either NOVEX ECL Chemi Substrate or SuperSignal West Femto Maximum Sensitivity Substrate (ThermoFisher, Waltham, MA, USA).

[8] = system: MKN45, RWP1 and H1299 cancer cells; experiment: MTT cell viability, summary over gastric, pancreatic and lung cancer cells; type: cell-based; settings: range over the three cell lines; read-out: IC50 range across MKN45, RWP1 and H1299
Method: as §1

In vivo toxicity assay = settings: intraperitoneal, 15 mg/kg
Method: Briefly, 15 mg/kg of MTP150 or vehicle (DMSO) was administered intraperitoneally to athymic nude-Foxn1^nu mice on a 5-days-on, 2-days-off schedule. Body weight was monitored to assess MSM potential toxicity. At the end-point, macroscopic analysis of the different organs was carried out.

U87-MG cells [9] = experiment: Western blot of acetylated α-tubulin and acetylated H3, U87-MG; type: cell-based; settings: 0.5, 1 and 10 µM
Method: as §3

BChE = BChE (Homo sapiens, UniProt P06276); experiment: BChE inhibition, Ellman's colorimetric method
Sequence of BChE (P06276 29-602, species assumed): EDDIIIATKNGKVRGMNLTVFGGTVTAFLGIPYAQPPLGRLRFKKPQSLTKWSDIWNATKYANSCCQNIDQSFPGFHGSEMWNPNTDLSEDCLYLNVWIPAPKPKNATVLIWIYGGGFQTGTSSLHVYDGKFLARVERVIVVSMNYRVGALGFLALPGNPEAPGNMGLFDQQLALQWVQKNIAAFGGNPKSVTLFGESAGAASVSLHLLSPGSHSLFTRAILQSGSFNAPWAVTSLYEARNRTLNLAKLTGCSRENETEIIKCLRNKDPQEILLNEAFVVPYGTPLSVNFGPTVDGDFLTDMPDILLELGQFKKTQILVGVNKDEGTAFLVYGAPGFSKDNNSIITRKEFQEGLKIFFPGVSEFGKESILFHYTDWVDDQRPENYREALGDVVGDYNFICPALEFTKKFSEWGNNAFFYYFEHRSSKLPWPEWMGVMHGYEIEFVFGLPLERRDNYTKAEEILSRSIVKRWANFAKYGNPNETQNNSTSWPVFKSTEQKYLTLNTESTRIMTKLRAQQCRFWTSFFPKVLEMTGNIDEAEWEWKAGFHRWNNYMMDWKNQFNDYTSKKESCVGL
Method: To assess ChEs inhibition, Ellman’s colorimetric method was followed. […] After incubation, the substrate solution (acetylthiocholine or butyrylthiocholine iodide, Sigma-Aldrich, at 1.5 mM) was added, and absorbance was recorded at 405 nm every minute for 10 min. […] Enzyme kinetics were evaluated with varying substrate and inhibitor concentrations, and the results were plotted as Lineweaver–Burk plots using GraphPad Prism software. The inhibition constant (Ki) was estimated from the intersection on the x-axis in secondary plots.

recombinant hMAO-B = molecular target: T1, recombinant hMAO-B (Homo sapiens, UniProt P27338); experiment: MAO-B inhibition assay; type: biochemical; settings: 30 min preincubation, 37 °C
T1 sequence (P27338 1-520): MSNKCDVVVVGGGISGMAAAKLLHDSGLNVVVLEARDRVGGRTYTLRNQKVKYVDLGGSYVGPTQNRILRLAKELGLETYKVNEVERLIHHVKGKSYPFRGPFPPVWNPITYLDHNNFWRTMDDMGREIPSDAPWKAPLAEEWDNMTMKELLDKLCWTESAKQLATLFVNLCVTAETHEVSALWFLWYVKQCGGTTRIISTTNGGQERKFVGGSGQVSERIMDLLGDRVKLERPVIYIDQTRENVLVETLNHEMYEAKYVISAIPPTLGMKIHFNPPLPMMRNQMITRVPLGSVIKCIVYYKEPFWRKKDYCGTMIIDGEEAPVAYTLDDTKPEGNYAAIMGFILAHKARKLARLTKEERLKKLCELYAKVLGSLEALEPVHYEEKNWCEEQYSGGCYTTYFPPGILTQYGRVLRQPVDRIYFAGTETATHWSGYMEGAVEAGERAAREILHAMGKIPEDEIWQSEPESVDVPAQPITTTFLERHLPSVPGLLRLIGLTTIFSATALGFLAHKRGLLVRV
Method: Subsequently, 200 U/mL horseradish peroxidase, 20 mM Ampliflu Red and 100 mM tyramine hydrochloride (Sigma-Aldrich) were added, and absorbance was measured at 570 nm every 5 min for 30 min. The inhibition percentage was calculated from these absorbance values.

U251-MG cells [10] = experiment: MTT cell viability, U251-MG; type: cell-based
Method: as §1

GNS179 cells = experiment: Immunofluorescence proliferation / apoptosis, GNS179; type: cell-based; settings: dose-dependent
Method: (§4) For immunofluorescence assays, cells were seeded at a density of 2 × 10^4 cells/well in 8-well immunofluorescence chambers (LabTek Thermo, Waltham, MA, USA) and incubated overnight. Following 48 h of treatment, cells were fixed with 4% PFA. Primary antibodies against phospho-Histone H3 (p-H3, Abcam) and Caspase 3 (R&D Systems, Minneapolis, MN, USA) and secondary antibodies Alexa Fluor anti-mouse and anti-rabbit (Invitrogen, Carlsbad, CA, USA) were used. Nuclei were stained with DAPI (Sigma-Aldrich). Images were acquired using an Axio Observer 7 epifluorescence microscope, and quantification was performed with Qupath software version 0.6.0.

U251-MG cells [11] = experiment: Immunofluorescence proliferation / apoptosis, U251-MG; type: cell-based; settings: dose-dependent
Method: as §4

[12] = system: GNS179 patient-derived GSCs; experiment: MTT cell viability, GNS179; type: cell-based
Method: as §1

[13] = Cell viability (MTT) of TMZ and MTP150 alone and combined; type: cell-based; settings: 250 µM TMZ, 0.5 µM MTP150, 72 h
Method: as §1

HDAC1 = system: HDAC1; parameters: method as in PMID 40109740; settings: read-out: HDAC inhibitory activity HDAC1 (IC50); cited from earlier work
HDAC6 = system: HDAC6; parameters: method as in PMID 40109740; settings: read-out: HDAC inhibitory activity HDAC6 (IC50); cited from earlier work
[14] = intraperitoneal treatment, immunohistochemistry at end-point
[15] = intratumoral, immunohistochemistry at end-point

O=C(/C=C/c1cccc(S(=O)(=O)Nc2ccccc2)c1)NO [Belinostat]
cell cycle alterations (GNS166 cells [1]): accumulation of cells in the subG0 phase

COc1ccc2c(ccn2S(=O)(=O)c2cccc(/C=C/C(=O)NO)c2)c1 [MTP142]
IC50 (H1299 lung cancer cells): 5640 nM | IC50 [2]: 970 nM | IC50 [3]: 9780 nM | IC50 (U87-MG cells [4]): 3.22 µM | IC50 [5]: 3270 nM

O=C(/C=C/c1cccc(S(=O)(=O)n2ccc3cc(OCCCN4CCCCC4)ccc32)c1)NO [MTP150]
antitumor activity compared with Belinostat (subcutaneous tumors; monotherapy and combination with TMZ): greater antitumor activity | IC50 (H1299 lung cancer cells): 700 nM | IC50 [2]: 100 nM | oncospheres generated by cells dissociated from treated tumors ([6]; 10 days in the absence of treatment): significantly fewer oncospheres | average tumor volume ([6]; intraperitoneal treatment, U87-MG subcutaneous tumors): ~ 270 mm^3 | acetyl-α-tubulin and acetyl H3 staining in tumors [6, 14]: promotes an increase in both | cleaved Caspase 3 staining in tumors [6, 14]: increase in apoptosis | average tumor volume ([6]; intratumoral 200 µM): ~ 480 mm^3 | reduction in final tumor volume vs control ([6]; intratumoral 200 µM): ~ 50% | tumor weight, lower mass than controls ([6]; intratumoral 200 µM, end-point day 39): > 40% | PCNA positive cells in resected tumors [6, 15]: fewer PCNA positive cells | cleaved Caspase 3 in resected tumors [6, 15]: increased cleaved Caspase 3 | tumor inhibition compared with Belinostat ([6]; relative tumor inhibition): more intense tumor inhibition | levels of acetylated α-tubulin and acetylated H3 (GNS166 cells [7]): higher levels of acetylated α-tubulin and H3 than both Belinostat and SAHA | IC50 [8]: 100 to 700 nM | IC50 [3]: 5720 nM | animal body weight compared to controls (In vivo toxicity assay; 5-days-on 2-days-off, 4 weeks): did not produce any significant changes in animal body weight | macroscopic analysis of post-mortem tissues (In vivo toxicity assay; end-point): did not show clear differences | levels of acetylated α-tubulin and acetylated H3 (U87-MG cells [9]): highest levels of acetylated proteins; also recorded: higher levels of acetylated α-tubulin and H3 than both Belinostat and SAHA | IC50 (BChE): 8090 nM | Ki (BChE): 2510 nM | BChE inhibition mechanism (BChE; Lineweaver–Burk plot): mixed inhibition mechanism | inhibition at 10 µM (BChE; read-out: BChE inhibition): 60% | IC50 (recombinant hMAO-B): 1.5 µM | IC50 (U251-MG cells [10]; Homo sapiens, U-251, MTT): 1.02 µM | IC50 (U251-MG cells [10]; MTT): 1 µM | apoptosis (Caspase 3-positive cells) (GNS179 cells): increased | proliferation (p-H3- and Ki67-positive cells) (GNS179 cells): reduced | IC50 (U87-MG cells [4]): 0.55 µM | IC50 [5]: 200 nM | cell cycle alterations (GNS166 cells [1]): accumulation of cells in the subG0 phase | apoptosis (Caspase 3-positive cells) (U251-MG cells [11]): increased | proliferation (p-H3- and Ki67-positive cells) (U251-MG cells [11]): reduced | IC50 [12]: 6.03 µM and 6 µM | viability at 72 h [13]: 37%

O=C(/C=C/c1cccc(S(=O)(=O)n2ccc3cc(OCc4ccccc4)ccc32)c1)NO [MTP156]
IC50 (H1299 lung cancer cells): 6630 nM | IC50 [2]: 1170 nM | IC50 (HDAC1): 210 nM | IC50 [3]: 7690 nM | IC50 (HDAC6): 330 nM | IC50 (U87-MG cells [4]): 3.13 µM | IC50 [5]: 5740 nM | cell cycle alterations (GNS166 cells [1]): accumulation of cells in the subG0 phase

Cn1nnc2c(C(N)=O)ncn2c1=O [TMZ, temozolomide, reference compound]
average tumor volume (subcutaneous tumors; TMZ 0.5 mg/Kg i.p. first 5 days, intratumoral MTP150 or vehicle): ~ 580 mm^3
